# Reference: patent publication US20060286047A1, “Methods for determining the sequence of a peptide motif having affinity for a substrate” (priority 2005, published 2006)
# Legend:
# [1] = ELISA assay of peptide motif binding to bleached hair; design: species or system human; Binding Activity % Relative to Control: concentration or dose not given beside the values; conditions: for Binding Activity % Relative to Control: bleached human hair, biotinylated peptide, streptavidin-HRP/TMB, A450, relative to positive control SEQ ID NO:124; for binding activity to hair compared to the positive control peptide (in words): bleached hair ELISA, summary of Table 7
# Protocol: The hair samples used were 6-inch (15.2 cm) medium brown human hairs obtained from International Hair Importers and Products (Bellerose, N.Y.). The hairs were placed in 90% isopropanol for 30 min at room temperature and then washed 5 times for 10 min each with deionized water. The hairs were air-dried overnight at room temperature. To prepare the bleached hair samples, the air-dried medium brown human hairs were placed in 6% H2O2, which was adjusted to pH 10.2 with ammonium hydroxide, for 10 min at room temperature and then washed 5 times for 10 min each with deionized water. The hairs were air-dried overnight at room temperature.
# Ten hair-binding peptide motifs from Table 6 were selected for testing of their hair-binding activity. The ten peptides were synthesized by SynPep (Dublin, Calif.). […] The control peptide had the sequence TPPELLHGDPRS, given as SEQ ID NO:124. The peptides were biotinylated by adding a biotinylated lysine residue at the C-terminus of the amino acid binding sequences for detection purposes and an amidated cysteine was added to the C-terminus of the sequence.
# Bleached hair samples were prepared and placed into wells of a custom 24-well biopanning apparatus, as described in Example 1. The hair was blocked with blocking buffer (SuperBlock™ from Pierce Biotechnology, Inc., Rockford, Ill.) at room temperature for 1 h, followed by six washes with TBST-0.5%, 2 min each, at room temperature. Various concentrations of biotinylated, binding peptide were added to each well, incubated for 15 min at 37° C., and washed six times with TBST-0.5%, 2 min each, at room temperature. Then, streptavidin-horseradish peroxidase (HRP) conjugate (Pierce Biotechnology, Inc.) was added to each well (1.0 μg per well), and incubated for 1 h at room temperature. After the incubation, the conjugate solution was removed and the wells were washed six times with TBST-0.5%, 2 min each, at room temperature. TMB substrate (200 μL) (Pierce Biotechnology, Inc.) was added to each well and the color was allowed to develop for between 5 to 30 min, typically for 10 min, at room temperature. Then, stop solution (200 μL of 2 M H2SO4) was added to each well and the solutions were transferred to a 96-well plate and the A450 was measured using a microplate spectrophotometer (Molecular Devices, Sunnyvale, Calif.). The resulting absorbance values, were used to calculate the binding activity of each hair-binding peptide motif relative to the positive control sequence.
# [2] = control peptide as identified by Huang et al.; cited from earlier work
substance,measurement,setting,value
90 (PLSTY; Hair-binding peptide motif) [compound 90],Binding Activity % Relative to Control,[1],53.0%
92 (TLGQA; Hair-binding peptide motif) [compound 92],Binding Activity % Relative to Control,[1],86.6%
95 (YSPIK; Hair-binding peptide motif) [compound 95],binding activity to hair compared to the positive control peptide (in words),[1],low binding activity
same,Binding Activity % Relative to Control,[1],1.9%
97 (FPPVP; Hair-binding peptide motif) [compound 97],Binding Activity % Relative to Control,[1],81.5%
98 (RPPLD; Hair-binding peptide motif) [compound 98],binding activity to hair compared to the positive control peptide (in words),[1],comparable to or greater than that of the positive control peptide
same,Binding Activity % Relative to Control,[1],90.3%
99 (QPLSV; Hair-binding peptide motif) [compound 99],Binding Activity % Relative to Control,[1],84.6%
119 (SNTTPSPSP; Hair-binding peptide motif) [compound 119],binding activity to hair compared to the positive control peptide (in words),[1],comparable to or greater than that of the positive control peptide
same,Binding Activity % Relative to Control,[1],94.5%
120 (THPLSNTT; Hair-binding peptide motif) [compound 120],Binding Activity % Relative to Control,[1],88.3%
121 (SPIKRPPLS; Hair-binding peptide motif) [compound 121],binding activity to hair compared to the positive control peptide (in words),[1],low binding activity
same,Binding Activity % Relative to Control,[1],4.4%
123 (RLLRLLRLLRLL; Hair-binding peptide motif) [compound 123],binding activity to hair compared to the positive control peptide (in words),[1],comparable to or greater than that of the positive control peptide
same,Binding Activity % Relative to Control,[1],127.1%
124 (TPPELLHGDPRS; Control hair-binding peptide) [compound 124],Binding Activity % Relative to Control,[1],100.0%
same,affinity for hair (in words),[2],high affinity for hair
